Measured values as given in US20250186437A1, “CARBOLINE COMPOUNDS AND USE THEREOF” (PTC Therapeutics, Inc., priority 2021, published 2025).

System: MOLM-13 cells
Experiment: MOLM-13 Cell Proliferation Assay (indicator of DHODH inhibition)
Assay type: cell-based
Details: Homo sapiens, 72 Hours of culture, CellTiter-Glo, no uridine
In short: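 Proliferation readout via CellTiter-Glo luminescence after 72 h compound treatment (37 °C, 5% CO2, 0.5% DMSO) of MOLM-13 cells seeded at 10^4 per well in RPMI 1640/10% FBS, used as a DHODH-inhibition indicator since these cells rely on de novo pyrimidine synthesis.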

| Compound | IC50 [nM] |
| --- | --- |
| Oc1cc(C2c3[nH]c4ccc(Cl)cc4c3CCN2c2nccc(C(F)(F)F)n2)ccc1Cl (stereo not shown) [Compound 218, 2-chloro-5-{6-chloro-2-[4-(trifluoromethyl)pyrimidin-2-yl]-2,3,4,9-tetrahydro-1H-pyrido[3,4-b]indol-1-yl}phenol] | 6.1 |
| Oc1cc(C2c3[nH]c4ccc(Cl)cc4c3CCN2c2ncc(F)cn2)ccc1Cl (stereo not shown) [Compound 219, 2-chloro-5-[6-chloro-2-(5-fluoropyrimidin-2-yl)-2,3,4,9-tetrahydro-1H-pyrido[3,4-b]indol-1-yl]phenol] | 23.3 |
| Oc1cc(Cl)ccc1C1c2[nH]c3ccc(Cl)cc3c2CCN1c1ncc(F)cn1 (stereo not shown) [Compound 221, 5-chloro-2-[6-chloro-2-(5-fluoropyrimidin-2-yl)-2,3,4,9-tetrahydro-1H-pyrido[3,4-b]indol-1-yl]phenol] | 4.2 |
| N#Cc1ccnc(N2CCc3c([nH]c4cc(F)c(Cl)cc34)C2c2ccc(/C=C/CCO)cc2)n1 (stereo not shown) [Compound 224, 2-(6-chloro-7-fluoro-1-{4-[(1E)-4-hydroxybut-1-en-1-yl]phenyl}-1,3,4,9-tetrahydro-2H-pyrido[3,4-b]indol-2-yl)pyrimidine-4-carbonitrile] | 3.9 |
| Nc1ncc(C2c3[nH]c4ccc(Cl)c(F)c4c3CCN2c2nccc(C(F)(F)F)n2)cn1 (stereo not shown) [Compound 225, 5-{6-chloro-5-fluoro-2-[4-(trifluoromethyl)pyrimidin-2-yl]-2,3,4,9-tetrahydro-1H-pyrido[3,4-b]indol-1-yl}pyrimidin-2-amine] | 18.3 |
| Fc1ncccc1C1c2[nH]c3ccc(Cl)c(F)c3c2CCN1c1nccc(C(F)(F)F)n1 (stereo not shown) [Compound 226, 6-chloro-5-fluoro-1-(2-fluoropyridin-3-yl)-2-[4-(trifluoromethyl)pyrimidin-2-yl]-2,3,4,9-tetrahydro-1H-pyrido[3,4-b]indole] | 25.4 |
| N#Cc1cc(C#N)nc(N2CCc3c([nH]c4cc(F)c(Cl)cc34)C2c2cccc(F)c2F)n1 (stereo not shown) [Compound 227, 2-[6-chloro-1-(2,3-difluorophenyl)-7-fluoro-1,3,4,9-tetrahydro-2H-pyrido[3,4-b]indol-2-yl]pyrimidine-4,6-dicarbonitrile] | 16.4 |
| Cc1ccc(C2c3[nH]c4ccc(Cl)c(F)c4c3CCN2c2nc(C#N)cc(C#N)n2)cc1 (stereo not shown) [Compound 228, 2-[6-chloro-5-fluoro-1-(4-methylphenyl)-1,3,4,9-tetrahydro-2H-pyrido[3,4-b]indol-2-yl]pyrimidine-4,6-dicarbonitrile] | 4.4 |
| Fc1c(Cl)ccc2[nH]c3c(c12)CCN(c1nccc(C(F)(F)F)n1)C3c1cnc(-n2cncn2)nc1 (stereo not shown) [Compound 230, 6-chloro-5-fluoro-1-[2-(1H-1,2,4-triazol-1-yl)pyrimidin-5-yl]-2-[4-(trifluoromethyl)pyrimidin-2-yl]-2,3,4,9-tetrahydro-1H-pyrido[3,4-b]indole] | 8.3 |
| Cc1ccnc(N2CCc3c([nH]c4ccc(Cl)c(F)c34)C2c2ccc(/C=C/CCO)cc2)n1 (stereo not shown) [Compound 237, (3E)-4-{4-[6-chloro-5-fluoro-2-(4-methylpyrimidin-2-yl)-2,3,4,9-tetrahydro-1H-pyrido[3,4-b]indol-1-yl]phenyl}but-3-en-1-ol] | 4.7 |
| Cc1nc(N2CCc3c([nH]c4cc(F)c(Cl)cc34)C2c2ccc(CCCCO)cc2)ncc1F (stereo not shown) [Compound 240, 4-{4-[6-chloro-7-fluoro-2-(5-fluoro-4-methylpyrimidin-2-yl)-2,3,4,9-tetrahydro-1H-pyrido[3,4-b]indol-1-yl]phenyl}butan-1-ol] | 4.1 |
| FC(F)(F)c1ccnc(N2CCc3c([nH]c4ccc(Cl)c(Br)c34)C2c2ccc(Cl)cc2)n1 (stereo not shown) [Compound 247, 5-bromo-6-chloro-1-(4-chlorophenyl)-2-[4-(trifluoromethyl)pyrimidin-2-yl]-2,3,4,9-tetrahydro-1H-pyrido[3,4-b]indole] | 1.8 |
| Oc1cc2[nH]c3c(c2cc1Cl)CCN(c1nccc(C(F)(F)F)n1)C3c1ccc(Cl)cc1 (stereo not shown) [Compound 250, 6-chloro-1-(4-chlorophenyl)-2-[4-(trifluoromethyl)pyrimidin-2-yl]-2,3,4,9-tetrahydro-1H-pyrido[3,4-b]indol-7-ol] | 86.1 |

The remaining compounds from weak to strong by IC50, led by results:

| IC50 [nM] | Compound |
| --- | --- |
| 3.6 | Cc1cc(C)nc(N2CCc3c([nH]c4cc(F)c(Cl)cc34)C2c2ccc(CCCCO)cc2)n1 (stereo not shown) [Compound 245, 4-{4-[6-chloro-2-(4,6-dimethylpyrimidin-2-yl)-7-fluoro-2,3,4,9-tetrahydro-1H-pyrido[3,4-b]indol-1-yl]phenyl}butan-1-ol] |
| 3.5 | Oc1cc(Cl)ccc1C1c2[nH]c3ccc(Cl)cc3c2CCN1c1nccc(C(F)(F)F)n1 (stereo not shown) [Compound 222, 5-chloro-2-{6-chloro-2-[4-(trifluoromethyl)pyrimidin-2-yl]-2,3,4,9-tetrahydro-1H-pyrido[3,4-b]indol-1-yl}phenol] |
| 3.4 | Cc1nc(N2CCc3c([nH]c4ccc(Cl)c(F)c34)C2c2ccc(/C=C/CCO)cc2)ncc1F (stereo not shown) [Compound 241, (3E)-4-{4-[6-chloro-5-fluoro-2-(5-fluoro-4-methylpyrimidin-2-yl)-2,3,4,9-tetrahydro-1H-pyrido[3,4-b]indol-1-yl]phenyl}but-3-en-1-ol] |
| 3.2 | Cc1cc(C)nc(N2CCc3c([nH]c4ccc(Cl)c(F)c34)C2c2ccc(/C=C/CCO)cc2)n1 (stereo not shown) [Compound 242, (3E)-4-{4-[6-chloro-2-(4,6-dimethylpyrimidin-2-yl)-5-fluoro-2,3,4,9-tetrahydro-1H-pyrido[3,4-b]indol-1-yl]phenyl}but-3-en-1-ol] |
| 2.8 | Cc1cc(C)nc(N2CCc3c([nH]c4cc(F)c(Cl)cc34)C2c2ccc(/C=C/CCO)cc2)n1 (stereo not shown) [Compound 244, (3E)-4-{4-[6-chloro-2-(4,6-dimethylpyrimidin-2-yl)-7-fluoro-2,3,4,9-tetrahydro-1H-pyrido[3,4-b]indol-1-yl]phenyl}but-3-en-1-ol] |
| 2.8 | Cc1nc(N2CCc3c([nH]c4ccc(Cl)c(F)c34)C2c2ccc(CCCCO)cc2)ncc1F (stereo not shown) [Compound 246, 4-{4-[6-chloro-5-fluoro-2-(5-fluoro-4-methylpyrimidin-2-yl)-2,3,4,9-tetrahydro-1H-pyrido[3,4-b]indol-1-yl]phenyl}butan-1-ol] |
| 2.5 | Cc1nc(N2CCc3c([nH]c4cc(F)c(Cl)cc34)C2c2ccc(/C=C/CCO)cc2)ncc1F (stereo not shown) [Compound 239, (3E)-4-{4-[6-chloro-7-fluoro-2-(5-fluoro-4-methylpyrimidin-2-yl)-2,3,4,9-tetrahydro-1H-pyrido[3,4-b]indol-1-yl]phenyl}but-3-en-1-ol] |
| 2.2 | Cc1ccc(C2c3[nH]c4ccc(Cl)c(F)c4c3CCN2c2ncc(F)c(C#N)n2)cc1 (stereo not shown) [Compound 217, 2-[6-chloro-5-fluoro-1-(4-methylphenyl)-1,3,4,9-tetrahydro-2H-pyrido[3,4-b]indol-2-yl]-5-fluoropyrimidine-4-carbonitrile] |
| 2.2 | Cc1nc(N2CCc3c([nH]c4cc(F)c(Cl)cc34)C2c2ccc(CCCCO)cc2)nc(C)c1F (stereo not shown) [Compound 249, 4-{4-[6-chloro-7-fluoro-2-(5-fluoro-4,6-dimethylpyrimidin-2-yl)-2,3,4,9-tetrahydro-1H-pyrido[3,4-b]indol-1-yl]phenyl}butan-1-ol] |
| 2 | OCCOCc1ccc(C2c3[nH]c4cc(F)c(Cl)cc4c3CCN2c2nccc(C(F)(F)F)n2)cc1 (stereo not shown) [Compound 223, 2-[(4-{6-chloro-7-fluoro-2-[4-(trifluoromethyl)pyrimidin-2-yl]-2,3,4,9-tetrahydro-1H-pyrido[3,4-b]indol-1-yl}phenyl)methoxy]ethan-1-ol] |
| 2 | FC(F)(F)c1ccnc(N2CCc3c([nH]c4ccc(Cl)cc34)C2c2cnc(N3CCOCC3)nc2)n1 (stereo not shown) [Compound 251, 6-chloro-1-[2-(morpholin-4-yl)pyrimidin-5-yl]-2-[4-(trifluoromethyl)pyrimidin-2-yl]-2,3,4,9-tetrahydro-1H-pyrido[3,4-b]indole] |
| 1.9 | Cc1ccc(C2c3[nH]c4ccc(Cl)c(F)c4c3CCN2c2nc(C#N)cc(C#N)n2)c(F)c1F (stereo not shown) [Compound 229, 2-[6-chloro-1-(2,3-difluoro-4-methylphenyl)-5-fluoro-1,3,4,9-tetrahydro-2H-pyrido[3,4-b]indol-2-yl]pyrimidine-4,6-dicarbonitrile] |
| 1.8 | N#Cc1ccnc(N2CCc3c([nH]c4ccc(Cl)c(F)c34)C2c2ccc(/C=C/CCO)cc2)n1 (stereo not shown) [Compound 236, 2-(6-chloro-5-fluoro-1-{4-[(1E)-4-hydroxybut-1-en-1-yl]phenyl}-1,3,4,9-tetrahydro-2H-pyrido[3,4-b]indol-2-yl)pyrimidine-4-carbonitrile] |
| 1.5 | Cc1ccc(C2c3[nH]c4ccc(Cl)cc4c3CCN2c2ncc(F)c(C)n2)c(F)c1F (stereo not shown) [Compound 235, 6-chloro-1-(2,3-difluoro-4-methylphenyl)-2-(5-fluoro-4-methylpyrimidin-2-yl)-2,3,4,9-tetrahydro-1H-pyrido[3,4-b]indole] |
| 1.1 | Cc1nc(N2CCc3c([nH]c4ccc(Cl)c(F)c34)C2c2ccc(/C=C/CCO)cc2)nc(C)c1F (stereo not shown) [Compound 243, (3E)-4-{4-[6-chloro-5-fluoro-2-(5-fluoro-4,6-dimethylpyrimidin-2-yl)-2,3,4,9-tetrahydro-1H-pyrido[3,4-b]indol-1-yl]phenyl}but-3-en-1-ol] |
| 0.9 | Cc1ccc([C@H]2c3[nH]c4ccc(Cl)cc4c3CCN2c2ncc(F)cn2)c(F)c1F [Compound 238, (1S)-6-chloro-1-(2,3-difluoro-4-methylphenyl)-2-(5-fluoropyrimidin-2-yl)-2,3,4,9-tetrahydro-1H-pyrido[3,4-b]indole] |
| 0.8 | Cc1ccnc(N2CCc3c([nH]c4ccc(Cl)cc34)[C@@H]2c2ccc(C)c(F)c2F)n1 [Compound 234, (1S)-6-chloro-1-(2,3-difluoro-4-methylphenyl)-2-(4-methylpyrimidin-2-yl)-2,3,4,9-tetrahydro-1H-pyrido[3,4-b]indole] |
| 0.5 | Cc1cc(C#N)nc(N2CCc3c([nH]c4ccc(Cl)c(F)c34)C2c2ccc(C)c(F)c2F)n1 (stereo not shown) [Compound 232, 2-[6-chloro-1-(2,3-difluoro-4-methylphenyl)-5-fluoro-1,3,4,9-tetrahydro-2H-pyrido[3,4-b]indol-2-yl]-6-methylpyrimidine-4-carbonitrile] |
